# Source: publication PMC5007466, “VCP recruitment to mitochondria causes mitophagy impairment and neurodegeneration in models of Huntington's disease” (Nature Communications, 2016)
# Legend:
# YAC128 mice [1] = test: EM of striatal mitophagosomes; format: in vivo, mouse; details: YAC128, 3 mg kg^−1 per day, age 3–9 months, per 100 μm^2
# From the text: The HdhQ7 and HdhQ111 cells were fixed by 2.5% glutaraldehyde in 0.1 M cacodylate buffer. Small pieces of the striata tissue of mice were fixed by immersion in triple aldehyde-DMSO. After rinsing in 0.1 M phosphate buffer (pH 7.3), the samples were post-fixed in ferrocyanide-reduced osmium tetroxide.
# The above fixed samples were rinsed by water followed by overnight soaking in acidified uranyl acetate. After rinsing in distilled water, the blocks were dehydrated in ascending concentrations of ethanol, passed through propylene oxide, and embedded in Poly/Bed resin. Thin sections were sequentially stained with acidified uranyl acetate followed by a modification of Sato's triple lead stain. These sections were examined in a FEI Tecnai Spirit (T12) transmission electron microscope with a Gatan US4000 4kx4k CCD at the Case Western Reserve University EM core facility. Mitochondria from 15 random areas in each group were imaged by an experimenter blind to the experimental groups. The length of mitochondria was measured by NIH Image J software. The number of mitophagosomes per 100 μm^2 was counted. The number of gold particles labelling VCP on mitochondria were quantitated.
# YAC128 mice (Tg) and their age-matched wt littermates were implanted with an osmotic pump containing TAT control peptide or HV-3 peptide (3 mg/kg/day, each) starting from the age of 3 months. […]
# YAC128 mice [2] = test: VCP mitochondrial level, YAC128 mouse striatum; format: in vivo; details: YAC128, 3 mg kg^−1 per day from 3 to 6 months versus TAT, n=6
# Experimental: Cells were washed with cold PBS and incubated on ice for 30 min in a lysis buffer (250 mM sucrose, 20 mM HEPES-NaOH, pH 7.5, 10 mM KCl, 1.5 mM MgCl2, 1 mM EDTA, protease inhibitor cocktail and phosphatase inhibitor cocktail). Mouse brains were minced and homogenized in the lysis buffer and then placed on ice for 30 min. Collected cells or tissue were disrupted 20 times by repeated aspiration through a 25-gauge needle, followed by a 30-gauge needle. The homogenates were spun at 800 g for 10 min at 4 °C, and the resulting supernatants were spun at 10,000 g for 20 min at 4 °C. The pellets were washed with lysis buffer and spun at 10,000 g again for 20 min at 4 °C. The final pellets were suspended in lysis buffer containing 1% Triton X-100 and were mitochondrial-rich lysate fractions. The supernatant was centrifuged at 100,000 g, 4 °C, for 1 h, the pellets were suspended in lysis buffer containing 1% Triton X-100 as ER fractions. The final supernatant was cytosolic fractions. The mitochondrial proteins VDAC, the ER protein WFS1 and the cytosolic protein Enolase were used as loading controls for mitochondrial, ER and cytosolic fractions, respectively.
# YAC128 (FVB-Tg(YAC128)53Hay/J, JAX stock number: 004938) breeders (FVB/N genetic background) were purchased from Jackson Laboratories. […]
# Protein concentrations were determined by Bradford assay. […]
# [3] = test system: Cathepsin B in HdhQ111 mouse striatal cells; test: Lysosomal Cathepsin B activity; format: cell-based; details: 3 uM/day for 3 days
# Experimental: Figure 5 Treatment of HV-3 reduces excessive mitophagy in HD cell cultures and HD mouse brains. (a) HdhQ7 and HdhQ111 cells were treated with control siRNA (con) or VCP siRNA (siVCP) for 48 h. Mitochondria were isolated and LC3 mitochondrial levels were determined by WB. Representative blots are from three independent experiments. The quantitation of LC3 II levels on mitochondria is provided on the right. VADC was used as a loading control. (b) Flag-VCP and GFP-LC3B were co-transfected into wild-type striatal cells. Mitochondria were isolated after 36 h of transfection. The GFP-LC3B levels on mitochondria were examined by WB. VDAC was used as a loading control. Representative blots are from three independent experiments. Histogram: quantitation of GFP-LC3B mitochondrial protein level. HdhQ7 and HdhQ111 cells were treated with control peptide TAT or peptide HV-3 (3 uM/day for 3 days). (c) HdhQ111 cells were transfected with GFP-LC3B for 24 h. The number of GFP-LC3B puncta was quantitated and shown in the histogram. Scale bars: 10 μm. (d) Enzyme activity of lysosomal Cathepsin B was measured using a Cathepsin B assay kit. […] (e) Mitochondrial mass was measured by the fluorescent density of Mitotracker green. […] Histogram: the number of mitophagosomes per 100 μm^2 was counted and quantitated. Fifteen random areas in the striatum of each animal were analyzed. […]
# R6/2 mice = test: Spontaneous locomotion, R6/2; format: in vivo, mouse; details: R6/2, 13 weeks of age, 3 mg kg^−1 per day s.c. pump from 5 weeks, n=15
# From the text: Male R6/2 mice and their wt littermates (4 weeks old) were purchased from Jackson Laboratories (Bar Harbor, ME; B6CBA-TgN (HD exon 1)62; JAX stock number: 006494). These mice (C57BL/6 and CBA genetic background) are transgenic for the 5′ end of the human HD gene carrying 100–150 glutamine (CAG) repeats.
# Male hemizygous R6/2 mice (Tg) and their age-matched wt littermates (5-week-old) were implanted with a 28-day osmotic pump (Alzet, Cupertino CA) containing TAT control peptide or HV-3 peptide, which delivered peptides to the mice at a rate of 3 mg kg^−1 per day. The first pump was implanted subcutaneously in the back of 5-week-old mice between the shoulders and replaced once, after 4 weeks.
# Gross locomotor activity was assessed in R6/2 mice and age-matched wt littermates at the ages of 13 weeks and in YAC128 mice and age-matched wt littermates at the ages of 2, 3, 6, 9, and 12 months. In an activity chamber (Omnitech Electronics, Inc), mice were placed in the center of the chamber and allowed to explore while being tracked by an automated beam system (Vertax, Omnitech Electronics Inc). Distance moved, horizontal, vertical, and rearing activities were recorded. Because R6/2 mice were sensitive to changes in environment and handling, we only conducted one-hour locomotor activity analysis for R6/2 mice and wt littermates. […]
compound,measurement,setting,value
CSCC[C@H](NC(=O)[C@@H](NC(=O)[C@H](CC(C)C)NC(=O)[C@@H](NC(=O)[C@H](Cc1c[nH]cn1)NC(=O)CCCCCNC(=O)[C@H](CCCNC(=N)N)NC(=O)[C@H](CCCNC(=N)N)NC(=O)[C@H](CCCNC(=N)N)NC(=O)[C@H](CCC(N)=O)NC(=O)[C@H](CCCNC(=N)N)NC(=O)[C@H](CCCNC(=N)N)NC(=O)[C@H](CCCCN)NC(=O)[C@H](CCCCN)NC(=O)[C@H](CCCNC(=N)N)NC(=O)CNC(=O)[C@@H](N)Cc1ccc(O)cc1)C(C)C)C(C)C)C(=O)N[C@@H](CS)C(=O)N[C@@H](C)C(=O)N[C@H](C(N)=O)[C@@H](C)O [HV-3],number of mitophagosomes in striatum,YAC128 mice [1],reduced by HV-3 treatment
same,VCP translocation to mitochondria in striatum,YAC128 mice [2],blocked VCP translocation to mitochondria
same,Cathepsin B activity,[3],reduced by treatment with HV-3
same,"spontaneous locomotion (total distance, horizontal and vertical activities)",R6/2 mice,markedly corrected these motor deficits
